Data published in ChEMBL document CHEMBL1201862, “PubChem BioAssay data set” (2004).
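A five-concentration, 48-hour dose response in 96-well plates underlies each endpoint, interpolated linearly between surrounding concentrations. Abbreviation: GI50, concentration required for 50% inhibition of growth.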 The source made the active and inactive calls. Rule as the data show it: active = GI50 up to about 1.1 µM and inactive = higher.

Tests used:
Assay in all cases: NCI-60 cell line screen, 48 h
BT-549 = test system: BT-549
CCRF-CEM = test system: CCRF-CEM
HCT-15 = test system: HCT-15
HL-60 = test system: HL-60
HT-29 = test system: HT-29
K562 = test system: K562
MDA-MB-231 = test system: MDA-MB-231
MOLT-4 = test system: MOLT-4
Malme-3M = test system: Malme-3M
OVCAR-8 = test system: OVCAR-8
SK-MEL-28 = test system: SK-MEL-28
SK-MEL-5 = test system: SK-MEL-5
SK-OV-3 = test system: SK-OV-3
TK-10 = test system: TK-10
UACC-257 = test system: UACC-257
UACC-62 = test system: UACC-62
UO-31 = test system: UO-31
LOX IMVI = test system: LOX IMVI

SMILES	GI50 (BT-549)	GI50 (CCRF-CEM)	GI50 (HCT-15)	GI50 (HL-60)	GI50 (HT-29)	GI50 (K562)	GI50 (MDA-MB-231)	GI50 (MOLT-4)	GI50 (Malme-3M)	GI50 (OVCAR-8)	GI50 (SK-MEL-28)	GI50 (SK-MEL-5)	GI50 (SK-OV-3)	GI50 (TK-10)	GI50 (UACC-257)	GI50 (UACC-62)	GI50 (UO-31)	GI50 (LOX IMVI)
O=C(Nc1cccc(Cl)c1)Nn1cnnc1	> 100 µM (inactive)	> 100 µM (inactive)	> 100 µM	66.5 µM (inactive)	> 100 µM (inactive)	> 100 µM (inactive)	> 100 µM (inactive)	> 100 µM (inactive)	> 100 µM (inactive)	> 100 µM (inactive)	> 100 µM (inactive)	> 100 µM (inactive)	> 100 µM (inactive)	> 100 µM (inactive)	> 100 µM (inactive)	> 100 µM (inactive)	> 100 µM (inactive)	
O=c1[nH]ncc2[nH]c3c(c12)CCc1ccccc1-3	35.5 µM (inactive)	31.5 µM (inactive)	30.8 µM	24.7 µM (inactive)	29.9 µM (inactive)	28.9 µM (inactive)	37.9 µM (inactive)	24.3 µM (inactive)	32.9 µM (inactive)	33.6 µM (inactive)	39.9 µM (inactive)	11 µM (inactive)	24.6 µM (inactive)	27.6 µM (inactive)	45.6 µM (inactive)		30.2 µM (inactive)	22.5 µM (inactive)
COC(=O)CC1C(COC(C)=O)OC(n2cc(C)c(=O)[nH]c2=O)C1OC(C)=O (centres undefined)	> 100 µM (inactive)	> 100 µM (inactive)	> 100 µM	> 100 µM (inactive)	> 100 µM (inactive)		> 100 µM (inactive)		> 100 µM (inactive)	> 100 µM (inactive)	> 100 µM (inactive)	> 100 µM (inactive)	> 100 µM (inactive)	> 100 µM (inactive)	> 100 µM (inactive)	> 100 µM (inactive)	> 100 µM (inactive)	> 100 µM (inactive)
Cc1c(C)c2c(c(N)c1C#N)C(=O)N(CCN1CCNCC1)C2=O	35.2 µM (inactive)	33.4 µM (inactive)	35.6 µM	28.4 µM (inactive)		51.6 µM (inactive)	19.3 µM (inactive)	30.5 µM (inactive)	22.6 µM (inactive)	30.8 µM (inactive)	38.3 µM (inactive)	> 10 µM (inactive)		36.7 µM (inactive)	37.7 µM (inactive)	23.2 µM (inactive)	28.6 µM (inactive)	20.1 µM (inactive)
Clc1ccc(C(OCn2ccnc2)c2nc3ccccc3[nH]2)c(Cl)c1 (centres undefined)	26.1 µM (inactive)	38.6 µM (inactive)	27.7 µM	22.1 µM (inactive)	53.3 µM (inactive)	45.7 µM (inactive)	84.5 µM (inactive)	29.6 µM (inactive)	88.9 µM (inactive)	52.8 µM (inactive)	48.3 µM (inactive)	16.2 µM (inactive)		31.7 µM (inactive)	35.5 µM (inactive)	35 µM (inactive)	23.7 µM (inactive)	32.4 µM (inactive)
O=C(c1ccccc1)c1ccc2c(c1)nc1n2C(c2c(Cl)cccc2Cl)SC1 (centres undefined)	77.1 µM (inactive)		56 µM	39.4 µM (inactive)	56.1 µM (inactive)		> 100 µM (inactive)	31.4 µM (inactive)	97.5 µM (inactive)	63.7 µM (inactive)	> 100 µM (inactive)	27.5 µM (inactive)	> 100 µM (inactive)	> 100 µM (inactive)	95.5 µM (inactive)	74.1 µM (inactive)	23.9 µM (inactive)	44 µM (inactive)
Cc1ccc([N+](=O)[O-])cc1S(=O)(=O)Nc1ccc(C2=NNC(c3ccccc3)C2)cc1 (centres undefined)	18.4 µM (inactive)		10.4 µM	16.4 µM (inactive)	27.4 µM (inactive)	6.73 µM (inactive)	15.3 µM (inactive)	6.64 µM (inactive)	17 µM (inactive)	26.2 µM (inactive)	25.2 µM (inactive)	14.7 µM (inactive)	15.5 µM (inactive)	19.8 µM (inactive)	15.8 µM (inactive)	9.33 µM (inactive)	24.9 µM (inactive)	
Cc1n[nH]c(=O)n1/N=C/c1ccc([N+](=O)[O-])cc1	> 100 µM (inactive)	> 100 µM (inactive)	> 100 µM	> 100 µM (inactive)	> 100 µM (inactive)	> 100 µM (inactive)	> 100 µM (inactive)	> 100 µM (inactive)	> 100 µM (inactive)	> 100 µM (inactive)	> 100 µM (inactive)	> 100 µM (inactive)		> 100 µM (inactive)	> 100 µM (inactive)	> 100 µM (inactive)	> 100 µM (inactive)	> 100 µM (inactive)
C[n+]1ccccc1/C=C/c1ccc2c(c1)OCO2	> 10 µM (inactive)	> 10 µM (inactive)	> 10 µM	> 10 µM (inactive)	> 10 µM (inactive)	> 10 µM (inactive)	> 10 µM (inactive)	> 10 µM (inactive)	> 10 µM (inactive)	> 10 µM (inactive)	> 10 µM (inactive)	> 10 µM (inactive)	> 10 µM (inactive)	> 10 µM (inactive)	> 10 µM (inactive)	> 10 µM (inactive)		> 10 µM (inactive)
CCOC(=O)Cc1nnc2c(-c3ccccc3)nc3ccccc3n12	> 100 µM (inactive)	> 100 µM (inactive)	56.2 µM	> 100 µM (inactive)	> 100 µM (inactive)	> 100 µM (inactive)	19.2 µM (inactive)	> 100 µM (inactive)	> 100 µM (inactive)		> 100 µM (inactive)	> 100 µM (inactive)	23.8 µM (inactive)	31.2 µM (inactive)	> 100 µM (inactive)	44.7 µM (inactive)	71 µM (inactive)	53.7 µM (inactive)
O=S(=O)(N/C(=N\O)Nc1ccc(Cl)cc1)c1ccc(S(=O)(=O)c2ccccc2)s1	15.4 µM (inactive)	19.1 µM (inactive)	28.1 µM	27.4 µM (inactive)	22.3 µM (inactive)	16.6 µM (inactive)	22.3 µM (inactive)	12.9 µM (inactive)	19.4 µM (inactive)	24.3 µM (inactive)	17.7 µM (inactive)	11.2 µM (inactive)		23.8 µM (inactive)	16 µM (inactive)	14.9 µM (inactive)	19.4 µM (inactive)	15.5 µM (inactive)
O=c1[nH]cc(F)c(=O)[nH]1 [FLUOROURACIL]	110 µM (inactive)	35.2 µM (inactive)		20.9 µM (inactive)		21.2 µM (inactive)	489 µM (inactive)	14 µM (inactive)	22.5 µM (inactive)	20.2 µM (inactive)	50.2 µM (inactive)	11.6 µM (inactive)	171 µM (inactive)	136 µM (inactive)	95.7 µM (inactive)	13.9 µM (inactive)	5.64 µM (inactive)	6.03 µM (inactive)
